Test results from PubChem BioAssay (NCI).
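In this assay, cells in 96-well plates receive the compound at five concentrations for 48 hours. Endpoints are linearly interpolated between the surrounding concentrations. Definition used: TGI = concentration required for complete inhibition of growth.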

Columns and labels:
Test in all cases: NCI tumour cell line growth inhibition, 48 h
A498 renal = tested on: A498 renal
OVCAR-8 ovarian = tested on: OVCAR-8 ovarian
CCRF-CEM leukemia = tested on: CCRF-CEM leukemia
SNB-78 CNS = tested on: SNB-78 CNS
NCI-H23 lung = tested on: NCI-H23 lung
HOP-62 NSCLC = tested on: HOP-62 NSCLC
NCI-H522 lung = tested on: NCI-H522 lung
HOP-92 NSCLC = tested on: HOP-92 NSCLC
SR leukemia = tested on: SR leukemia
ACHN renal = tested on: ACHN renal
UACC-257 melanoma = tested on: UACC-257 melanoma
RXF 393 renal = tested on: RXF 393 renal
UO-31 renal = tested on: UO-31 renal
DMS 114 small cell lung = tested on: DMS 114 small cell lung
U251 CNS = tested on: U251 CNS
M19-MEL melanoma = tested on: M19-MEL melanoma
DMS 273 small cell lung = tested on: DMS 273 small cell lung
KM20L2 colon = tested on: KM20L2 colon
SNB-19 CNS = tested on: SNB-19 CNS
HCT-116 colon = tested on: HCT-116 colon
UACC-62 melanoma = tested on: UACC-62 melanoma
A549 NSCLC = tested on: A549 NSCLC
SF-295 CNS = tested on: SF-295 CNS
HL-60(TB) leukemia = tested on: HL-60(TB) leukemia
SK-OV-3 ovarian = tested on: SK-OV-3 ovarian
NCI-H460 lung = tested on: NCI-H460 lung
IGROV1 ovarian = tested on: IGROV1 ovarian
M14 melanoma = tested on: M14 melanoma
MOLT-4 leukemia = tested on: MOLT-4 leukemia
RXF-631 renal = tested on: RXF-631 renal
SK-MEL-28 melanoma = tested on: SK-MEL-28 melanoma
TK-10 renal = tested on: TK-10 renal
KM12 colon = tested on: KM12 colon
OVCAR-5 ovarian = tested on: OVCAR-5 ovarian
HT29 colon = tested on: HT29 colon
EKVX NSCLC = tested on: EKVX NSCLC
SN12C renal = tested on: SN12C renal
MALME-3M melanoma = tested on: MALME-3M melanoma
K-562 leukemia = tested on: K-562 leukemia
LOX IMVI melanoma = tested on: LOX IMVI melanoma
HCT-15 colon = tested on: HCT-15 colon
SW-620 colon = tested on: SW-620 colon
COLO 205 colon = tested on: COLO 205 colon
SNB-75 CNS = tested on: SNB-75 CNS
SK-MEL-2 melanoma = tested on: SK-MEL-2 melanoma
SF-539 CNS = tested on: SF-539 CNS
SF-268 CNS = tested on: SF-268 CNS
RPMI-8226 leukemia = tested on: RPMI-8226 leukemia
OVCAR-3 ovarian = tested on: OVCAR-3 ovarian
LXFL 529 NSCLC = tested on: LXFL 529 NSCLC
SK-MEL-5 melanoma = tested on: SK-MEL-5 melanoma
HCC-2998 colon = tested on: HCC-2998 colon
XF 498 CNS = tested on: XF 498 CNS
NCI-H226 lung = tested on: NCI-H226 lung
OVCAR-4 ovarian = tested on: OVCAR-4 ovarian
786-0 renal = tested on: 786-0 renal
CAKI-1 renal = tested on: CAKI-1 renal
DLD-1 colon = tested on: DLD-1 colon
HOP-18 NSCLC = tested on: HOP-18 NSCLC
MDA-MB-231 breast = tested on: MDA-MB-231 breast
DU-145 prostate = tested on: DU-145 prostate
MCF7 breast = tested on: MCF7 breast
T-47D breast = tested on: T-47D breast

NC(CCc1nc(-c2cccc([N+](=O)[O-])c2)cs1)C(=O)O (stereo not given)
TGI (A498 renal): > 100 µM
TGI (OVCAR-8 ovarian): > 100 µM
TGI (CCRF-CEM leukemia): > 100 µM
TGI (SNB-78 CNS): > 100 µM
TGI (NCI-H23 lung): > 100 µM
TGI (HOP-62 NSCLC): > 100 µM
TGI (NCI-H522 lung): > 100 µM
TGI (HOP-92 NSCLC): > 100 µM
TGI (SR leukemia): > 100 µM
TGI (ACHN renal): > 100 µM
TGI (UACC-257 melanoma): > 100 µM
TGI (RXF 393 renal): > 100 µM
TGI (UO-31 renal): > 100 µM
TGI (DMS 114 small cell lung): > 100 µM
TGI (U251 CNS): > 100 µM
TGI (M19-MEL melanoma): > 100 µM
TGI (DMS 273 small cell lung): > 100 µM
TGI (KM20L2 colon): > 100 µM
TGI (SNB-19 CNS): > 100 µM
TGI (HCT-116 colon): > 100 µM
TGI (UACC-62 melanoma): > 100 µM
TGI (A549 NSCLC): > 100 µM
TGI (SF-295 CNS): > 100 µM
TGI (HL-60(TB) leukemia): > 100 µM
TGI (SK-OV-3 ovarian): > 100 µM
TGI (NCI-H460 lung): > 100 µM
TGI (IGROV1 ovarian): > 100 µM
TGI (M14 melanoma): > 100 µM
TGI (MOLT-4 leukemia): > 100 µM
TGI (RXF-631 renal): > 100 µM
TGI (SK-MEL-28 melanoma): > 100 µM
TGI (TK-10 renal): > 100 µM
TGI (KM12 colon): > 100 µM
TGI (OVCAR-5 ovarian): > 100 µM
TGI (HT29 colon): > 100 µM
TGI (EKVX NSCLC): > 100 µM

Cc1ccc(S(=O)(=O)c2ccc(C)cc2[N+](=O)[O-])c([N+](=O)[O-])c1
TGI (SN12C renal): > 100 µM
TGI (OVCAR-8 ovarian): > 100 µM
TGI (CCRF-CEM leukemia): > 100 µM
TGI (SNB-78 CNS): > 100 µM
TGI (MALME-3M melanoma): > 100 µM
TGI (K-562 leukemia): > 100 µM
TGI (LOX IMVI melanoma): > 100 µM
TGI (NCI-H23 lung): > 100 µM
TGI (HOP-62 NSCLC): > 100 µM
TGI (HCT-15 colon): > 100 µM
TGI (SW-620 colon): > 100 µM
TGI (NCI-H522 lung): > 100 µM
TGI (COLO 205 colon): > 100 µM
TGI (SR leukemia): > 100 µM
TGI (SNB-75 CNS): > 100 µM
TGI (ACHN renal): > 100 µM
TGI (SK-MEL-2 melanoma): > 100 µM
TGI (RXF 393 renal): > 100 µM
TGI (SF-539 CNS): > 100 µM
TGI (UO-31 renal): > 100 µM
TGI (DMS 114 small cell lung): > 100 µM
TGI (U251 CNS): > 100 µM
TGI (SF-268 CNS): > 100 µM
TGI (M19-MEL melanoma): > 100 µM
TGI (DMS 273 small cell lung): > 100 µM
TGI (RPMI-8226 leukemia): > 100 µM
TGI (KM20L2 colon): > 100 µM
TGI (SNB-19 CNS): > 100 µM
TGI (HCT-116 colon): > 100 µM
TGI (OVCAR-3 ovarian): > 100 µM
TGI (UACC-62 melanoma): > 100 µM
TGI (A549 NSCLC): > 100 µM
TGI (LXFL 529 NSCLC): > 100 µM
TGI (SF-295 CNS): > 100 µM
TGI (SK-MEL-5 melanoma): > 100 µM
TGI (NCI-H460 lung): > 100 µM
TGI (IGROV1 ovarian): > 100 µM
TGI (HCC-2998 colon): > 100 µM
TGI (M14 melanoma): > 100 µM
TGI (XF 498 CNS): > 100 µM
TGI (NCI-H226 lung): > 100 µM
TGI (SK-MEL-28 melanoma): > 100 µM
TGI (TK-10 renal): > 100 µM
TGI (KM12 colon): > 100 µM
TGI (OVCAR-5 ovarian): > 100 µM
TGI (OVCAR-4 ovarian): > 100 µM
TGI (HT29 colon): > 100 µM
TGI (786-0 renal): > 100 µM
TGI (EKVX NSCLC): > 100 µM

C/C=C1\Oc2ccc(OC)cc2S1(=O)=O
TGI (SN12C renal): > 100 µM
TGI (A498 renal): > 100 µM
TGI (OVCAR-8 ovarian): > 100 µM
TGI (CAKI-1 renal): > 100 µM
TGI (CCRF-CEM leukemia): > 100 µM
TGI (SNB-78 CNS): > 100 µM
TGI (MALME-3M melanoma): > 100 µM
TGI (K-562 leukemia): > 100 µM
TGI (LOX IMVI melanoma): > 100 µM
TGI (NCI-H23 lung): > 100 µM
TGI (HOP-62 NSCLC): > 100 µM
TGI (HCT-15 colon): > 100 µM
TGI (SW-620 colon): > 100 µM
TGI (NCI-H522 lung): > 100 µM
TGI (DLD-1 colon): > 100 µM
TGI (COLO 205 colon): > 100 µM
TGI (HOP-92 NSCLC): > 100 µM
TGI (SR leukemia): > 100 µM
TGI (SNB-75 CNS): > 100 µM
TGI (ACHN renal): > 100 µM
TGI (HOP-18 NSCLC): > 100 µM
TGI (UACC-257 melanoma): > 100 µM
TGI (SK-MEL-2 melanoma): > 100 µM
TGI (RXF 393 renal): > 100 µM
TGI (UO-31 renal): > 100 µM
TGI (DMS 114 small cell lung): > 100 µM
TGI (U251 CNS): > 100 µM
TGI (SF-268 CNS): > 100 µM
TGI (M19-MEL melanoma): > 100 µM
TGI (DMS 273 small cell lung): > 100 µM
TGI (RPMI-8226 leukemia): > 100 µM
TGI (KM20L2 colon): > 100 µM
TGI (SNB-19 CNS): > 100 µM
TGI (HCT-116 colon): > 100 µM
TGI (OVCAR-3 ovarian): > 100 µM
TGI (UACC-62 melanoma): > 100 µM
TGI (A549 NSCLC): > 100 µM
TGI (LXFL 529 NSCLC): > 100 µM
TGI (SF-295 CNS): > 100 µM
TGI (HL-60(TB) leukemia): > 100 µM
TGI (SK-MEL-5 melanoma): > 100 µM
TGI (SK-OV-3 ovarian): > 100 µM
TGI (NCI-H460 lung): > 100 µM
TGI (IGROV1 ovarian): > 100 µM
TGI (HCC-2998 colon): > 100 µM
TGI (M14 melanoma): > 100 µM
TGI (MOLT-4 leukemia): > 100 µM
TGI (NCI-H226 lung): > 100 µM
TGI (SK-MEL-28 melanoma): > 100 µM
TGI (TK-10 renal): > 100 µM
TGI (KM12 colon): > 100 µM
TGI (OVCAR-5 ovarian): > 100 µM
TGI (OVCAR-4 ovarian): > 100 µM
TGI (HT29 colon): > 100 µM
TGI (786-0 renal): > 100 µM
TGI (EKVX NSCLC): > 100 µM

CCCCCC(=O)OC[n+]1ccc2c(C)c3[nH]c4ccc(OC)cc4c3c(C)c2c1
TGI (A498 renal): 2.17 µM
TGI (MDA-MB-231 breast): 1.83 µM
TGI (CAKI-1 renal): > 23 µM
TGI (MALME-3M melanoma): > 63.6 µM
TGI (HOP-62 NSCLC): 2.28 µM
TGI (NCI-H522 lung): > 100 µM
TGI (SR leukemia): > 100 µM
TGI (ACHN renal): 4.78 µM
TGI (DU-145 prostate): 3.19 µM
TGI (SK-MEL-2 melanoma): > 100 µM
TGI (SF-539 CNS): 1.17 µM
TGI (UO-31 renal): 3.31 µM
TGI (SF-268 CNS): > 100 µM
TGI (KM20L2 colon): > 100 µM
TGI (OVCAR-3 ovarian): > 100 µM
TGI (UACC-62 melanoma): 3.31 µM
TGI (A549 NSCLC): 13.7 µM
TGI (SF-295 CNS): 1.72 µM
TGI (SK-MEL-5 melanoma): > 100 µM
TGI (SK-OV-3 ovarian): 3.03 µM
TGI (NCI-H460 lung): 1.04 µM
TGI (IGROV1 ovarian): 3.71 µM
TGI (MOLT-4 leukemia): > 100 µM
TGI (MCF7 breast): 1.96 µM
TGI (NCI-H226 lung): 31 µM
TGI (TK-10 renal): 9.74 µM
TGI (T-47D breast): 13.1 µM
TGI (OVCAR-5 ovarian): 2.24 µM
TGI (786-0 renal): 1.51 µM
